Experimental data as given in US8691859B2 (priority 2005, dated 2014).
Converted amounts (≈) assume the structure as drawn.

Assays:
[1] = system: B. anthracis GFP sterne vegetative cells; test: microbe, parasite or virus in culture; format: cell-based; details: Bacillus anthracis, read-out: MIC B. anthracis vegetative cells
[2] = molecular target: anthrax lethal factor (Bacillus anthracis, UniProt P15917); format: biochemical
[3] = system: B. anthracis GFP sterne spores; test: microbe, parasite or virus in culture; format: cell-based; details: Bacillus anthracis, read-out: MIC B. anthracis spores

Chain of anthrax lethal factor (P15917 34-809 limits assumed): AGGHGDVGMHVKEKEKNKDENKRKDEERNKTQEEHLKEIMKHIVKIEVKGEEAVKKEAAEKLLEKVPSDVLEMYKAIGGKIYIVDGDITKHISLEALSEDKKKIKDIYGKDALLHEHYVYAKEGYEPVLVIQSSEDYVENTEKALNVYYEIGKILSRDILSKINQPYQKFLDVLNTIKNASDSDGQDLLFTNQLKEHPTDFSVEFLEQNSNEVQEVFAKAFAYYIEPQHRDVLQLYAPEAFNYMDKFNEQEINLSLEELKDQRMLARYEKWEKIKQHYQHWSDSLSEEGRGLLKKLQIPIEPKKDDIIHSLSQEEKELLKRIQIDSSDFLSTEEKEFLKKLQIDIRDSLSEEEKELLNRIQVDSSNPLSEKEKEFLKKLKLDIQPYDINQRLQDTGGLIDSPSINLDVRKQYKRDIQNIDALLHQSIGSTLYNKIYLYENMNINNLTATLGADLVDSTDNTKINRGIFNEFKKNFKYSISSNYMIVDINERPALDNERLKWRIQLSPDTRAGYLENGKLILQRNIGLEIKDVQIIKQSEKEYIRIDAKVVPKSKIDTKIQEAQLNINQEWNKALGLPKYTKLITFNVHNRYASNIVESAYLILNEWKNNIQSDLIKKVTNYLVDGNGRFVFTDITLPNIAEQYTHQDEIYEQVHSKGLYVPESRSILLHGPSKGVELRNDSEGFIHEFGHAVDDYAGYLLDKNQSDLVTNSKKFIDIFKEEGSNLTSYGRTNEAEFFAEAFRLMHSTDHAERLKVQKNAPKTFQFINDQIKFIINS

| Compound | MIC [1] [µg/mL] | inhibition of the protease activity of anthrax lethal factor [2] | MIC [3] [µg/mL] |
| --- | --- | --- | --- |
| Cc1c(/C=C/c2oc3ccc(C(=N)N)cc3c2C)oc2ccc(C(=N)N)cc12 [NSC 266474, 2-[(E)-2-(5-carbamimidoyl-3-methyl-benzofuran-2-yl)ethenyl]-3-methyl-benzofuran-5-carboximidamide] | > 17.8 | inhibit | > 17.8 |
| C/C(=C\c1cc2cc(C(=N)N)ccc2o1)c1cc2cc(C(=N)N)ccc2o1 [NSC 266476, 2-[(E)-1-(5-carbamimidoylbenzofuran-2-yl)prop-1-en-2-yl]benzofuran-5-carboximidamide] | > 17.2 | inhibit | > 17.2 |
| N=C(N)c1ccc2[nH]c(/C=C/c3cc4cc(C(=N)N)ccc4o3)cc2c1 [NSC 290107, 2-[(E)-2-(5-carbamimidoylbenzofuran-2-yl)ethenyl]-1H-indole-5-carboximidamide] | > 16.6 | inhibit | 8.32 (≈ 24.2 µM) |
| C(=C\c1cc2cc(C3=NCCN3)ccc2o1)/c1cc2cc(C3=NCCN3)ccc2[nH]1 [NSC 290108, 5-(4,5-dihydro-1H-imidazol-2-yl)-2-[(E)-2-[5-(4,5-dihydro-1H-imidazol-2-yl)benzofuran-2-yl]ethenyl]-1H-indole] | > 18.5 | inhibit | 18.5 (≈ 46.7 µM) |
| N=C(N)c1ccc2oc(CCc3cc4ccc(C(=N)N)cc4[nH]3)cc2c1 [NSC 290109, 2-[2-(5-carbamimidoylbenzofuran-2-yl)ethyl]-1H-indole-6-carboximidamide] | 8.36 (≈ 24.2 µM) | inhibit | 8.36 (≈ 24.2 µM) |
| N=C(N)c1ccc2cc(/C=C/c3cc4ccc(C(=N)N)cc4o3)[nH]c2c1 [NSC 294200, 2-[(E)-2-(6-carbamimidoylbenzofuran-2-yl)ethenyl]-1H-indole-6-carboximidamide] | 4.16 (≈ 12.1 µM) | inhibit | 2.08 (≈ 6.06 µM) |
| C(=C\c1cc2ccc(C3=NCCN3)cc2o1)/c1cc2ccc(C3=NCCN3)cc2[nH]1 [NSC 294201, 6-(4,5-dihydro-1H-imidazol-2-yl)-2-[(E)-2-[6-(4,5-dihydro-1H-imidazol-2-yl)benzofuran-2-yl]ethenyl]-1H-indole] | 18.7 (≈ 47.3 µM) | inhibit | 4.68 (≈ 11.8 µM) |
| N=C(N)c1ccc2[nH]c(/C=C/c3cc4ccc(C(=N)N)cc4o3)cc2c1 [NSC 294203, 2-[(E)-2-(6-carbamimidoylbenzofuran-2-yl)ethenyl]-1H-indole-5-carboximidamide] | > 16.6 | inhibit | 16.6 (≈ 48.5 µM) |
| C(=C\c1cc2ccc(C3=NCCN3)cc2o1)/c1cc2cc(C3=NCCN3)ccc2[nH]1 [NSC 294204, 5-(4,5-dihydro-1H-imidazol-2-yl)-2-[(E)-2-[6-(4,5-dihydro-1H-imidazol-2-yl)benzofuran-2-yl]ethenyl]-1H-indole] | > 18.7 | inhibit | 18.7 (≈ 47.3 µM) |
| O=C(Nc1ccc(C2=NCCN2)cc1)c1cc2ccc(C3=NCCN3)cc2[nH]1 [NSC 294206, 6-(4,5-dihydro-1H-imidazol-2-yl)-N-[4-(4,5-dihydro-1H-imidazol-2-yl)phenyl]-1H-indole-2-carboxamide] | 17.8 (≈ 47.8 µM) | inhibit | 8.9 (≈ 23.9 µM) |
| N=C(N)c1ccc2oc(/C=C/C=C/c3cc4cc(C(=N)N)ccc4o3)cc2c1 [NSC 300511, 2-[(1E,3E)-4-(5-carbamimidoylbenzofuran-2-yl)buta-1,3-dienyl]benzofuran-5-carboximidamide] | 17.7 (≈ 47.8 µM) | inhibit | 2.21 (≈ 5.98 µM) |
| C(/C=C/c1cc2cc(C3=NCCN3)ccc2o1)=C\c1cc2cc(C3=NCCN3)ccc2o1 [NSC 308571, 2-[2-[(1E,3E)-4-[5-(4,5-dihydro-1H-imidazol-2-yl)benzofuran-2-yl]buta-1,3-dienyl]benzofuran-5-yl]-4,5-dihydro-1H-imidazole] | 19.8 (≈ 46.9 µM) | inhibit | 9.9 (≈ 23.4 µM) |
